Test results: PMC4026384, “Antibacterial Activity of THAM Trisphenylguanide against Methicillin-Resistant Staphylococcus aureus” (PLoS ONE, 2014)
Converted amounts (≈) assume the structure as drawn. “Also recorded” adds a separate entry of the source. Where two headings read alike, the source gives them in different places.

Experiments:
MRSA strain LAC, USA300 = test: Minimum inhibitory concentration (microdilution); assay type: cell-based, Staphylococcus aureus; conditions: for MIC of control antibiotics: assay described in Material and Methods, controls of the MRSA leakage assay (Figure S2); for MIC: MRSA USA300, LB media, median of at least 3 determinations
Protocol: (§1) Minimum inhibitory concentration (MIC) values were determined for those compounds showing the most antibacterial activity in the bacterial viability assays (see Supplemental Materials) against each of the strains of bacteria using a microdilution method in 96 well plates with LB media according to guidelines published by the British Society for Antimicrobial Chemotherapy. Minimum bactericidal concentrations (MBC) were determined by plating 10 µL and 100 µL from each well showing no signs of growth after overnight incubation of the MIC plates and determining the minimum concentration showing a 3-log reduction of viable bacteria. MIC and MBC were also determined in cation-adjusted Mueller-Hinton broth (Hardy Diagnostics, Santa Maria, CA) for some compounds and strains.

MRSA = test: Cytoplasmic leakage & bacteriolysis assay; assay type: cell-based, Staphylococcus aureus; conditions: 1× to 4×MIC, over the 3 hour period
Protocol: Bacteria were cultured to mid-log phase (OD600 ∼0.4) in LB media with shaking. Bacteria were then harvested and resuspended in PBS to a concentration of ∼10^8 CFU/mL. […] Bacteria were monitored over time for cytoplasmic leakage via A260 measurements and for cell viability. For A260 readings, sample aliquots were centrifuged for 5 min at 10,000×g at room temperature to remove cellular debris. Viability was monitored by determining the CFU/mL during the first 3 hours post treatment as described above for the kill curve assays.

[1] = Cell toxicity assay (MTS); assay type: cell-based, human; conditions: human, MTS assay, concentration which killed 50% of the cells
Protocol: (§2) The HaCaT cell line was grown in Epilife medium (MEPI500Ca) with human keratinocyte growth supplement (Invitrogen, San Diego, CA). Both types of cells were harvested using Tryspin/EDTA and diluted to 1×10^5 cells per well in a 96-well plate. Ten concentrations covering five orders of magnitude were tested with six replicates per concentration. […] MTS/PMS solution (Promega, Madison, WI) was added to the wells and absorbance was measured at 490 nm two to four hours later. Data was analyzed using GraphPad Prism version 5.0 (GraphPad Software, La Jolla, CA) using a variable slope inhibition dose response curve.

[2] = tested on: HaCaT human keratinocytes; test: Cell toxicity assay (MTS); assay type: cell-based; conditions: for CC50: MTS assay, concentration which killed 50% of the cells
Protocol: as §2

[3] = tested on: human breast cancer cell line MDA-MB-231; test: Cell toxicity assay (MTS); assay type: cell-based; conditions: MDA-231
Protocol: as §2

E. coli K91 = test: Bacterial viability assay; assay type: cell-based, Escherichia coli; conditions: one hour in PBS, CFU, ± SEM
Protocol: (§3) Supplementary file pone.0097742.s003.doc: Table S1 Bacterial viability assays. Bacteria were grown at 37°C to mid-log phase (OD600 ∼0.4). The bacteria were diluted to approximately 10^4 to 10^5 colony forming units (CFU) per milliliter and added to a solution of phosphate buffered saline (PBS, 16 mM phosphate, 0.14 M NaCl, pH 7.2) containing the compound at varied concentrations. Samples were incubated at 37°C for one hour and then plated on Luria Bertani (LB) agar at appropriate dilutions in PBS. The plates were incubated overnight at 37°C and colonies enumerated the following day. IC50s were calculated from graphs of CFU as a function of compound concentration. Chlorhexidine was used as a positive control. […] (DOC) Click here for additional data file.
(§4) Bacterial viability assays. Bacteria were grown at 37°C to mid-log phase (OD600 ~0.4). The bacteria were diluted to approximately 10^4 to 10^5 colony forming units (CFU) per milliliter and added to a solution of phosphate buffered saline (PBS, 16 mM phosphate, 0.14 M NaCl, pH 7.2) containing the compound at varied concentrations. Samples were incubated at 37°C for one hour and then plated on Luria Bertani (LB) agar at appropriate dilutions in PBS. The plates were incubated overnight at 37°C and colonies enumerated the following day. IC50s were calculated from graphs of CFU as a function of compound concentration. Chlorhexidine was used as a positive control.

P. aeruginosa PA01 = test: Bacterial viability assay; assay type: cell-based, Pseudomonas aeruginosa; conditions: one hour in PBS, CFU, ± SEM
Protocol: as §3, §4

A. baumannii ATCC 19606 = test: Bacterial viability assay; assay type: cell-based, Acinetobacter baumannii; conditions: one hour in PBS, CFU, ± SEM
Protocol: as §3, §4

[4] = tested on: A. baumannii ATCC BAA1605; test: Bacterial viability assay; assay type: cell-based, Acinetobacter baumannii; conditions: one hour in PBS, CFU, ± SEM
Protocol: as §3, §4

E. faecalis MSU#10 = test: Bacterial viability assay; assay type: cell-based, Enterococcus faecalis; conditions: E. faecalis MSU#10, one hour in PBS, CFU, ± SEM, read-out: IC50
Protocol: as §3, §4

E. faecalis V583 = test: Bacterial viability assay; assay type: cell-based, Enterococcus faecalis; conditions: one hour in PBS, CFU, ± SEM
Protocol: as §3, §4

S. aureus RN4220 = test: Bacterial viability assay; assay type: cell-based, Staphylococcus aureus; conditions: one hour in PBS, CFU, ± SEM
Protocol: (§5) Supplementary file pone.0097742.s003.doc: Table S1 Bacterial viability assays. Bacteria were grown at 37°C to mid-log phase (OD600 ∼0.4). The bacteria were diluted to approximately 10^4 to 10^5 colony forming units (CFU) per milliliter and added to a solution of phosphate buffered saline (PBS, 16 mM phosphate, 0.14 M NaCl, pH 7.2) containing the compound at varied concentrations. Samples were incubated at 37°C for one hour and then plated on Luria Bertani (LB) agar at appropriate dilutions in PBS. The plates were incubated overnight at 37°C and colonies enumerated the following day. IC50s were calculated from graphs of CFU as a function of compound concentration. Chlorhexidine was used as a positive control. Included are those guanide (G), biguanide (BG), phenylguanide (ΦG) compounds that had some antibacterial activity in an initial screen at 30 and 100 µM, as well as their and parent amines. Compounds synthesized from 1,4-butanediamine, 1,6-hexanediamine, trisethylaminomelamine, trisbutylaminomelamine, and the dendrimer PAMAM (G0) were not active against E. coli, P aeruginosa, or S. aureus so they were not tested against the remaining bacteria (data not shown). (DOC) Click here for additional data file.
as §5, with “Bacterial” for “Supplementary file pone.0097742.s003.doc: Table S1 Bacterial”, “~0.4).” for “∼0.4).”, “μM,” for “µM,”, “shown).” for “shown). (DOC) Click here for additional data file.”

MRSA USA300 = test: Bacterial viability assay; assay type: cell-based, Staphylococcus aureus; conditions: one hour in PBS, CFU, ± SEM
Protocol: as §3, §4

[5] = tested on: Acinetobacter baumannii ATCC 19606; test: Minimum inhibitory concentration (microdilution); assay type: cell-based; conditions: A. baumannii ATCC 19606; LB media; median of at least 3 determinations
Protocol: as §1

[6] = tested on: Enterococcus faecalis ATCC V583; test: Minimum inhibitory concentration (microdilution); assay type: cell-based; conditions: E. faecalis V583; LB media; median of at least 3 determinations
Protocol: as §1

[7] = tested on: Enterococcus faecalis MSU#10; test: Minimum inhibitory concentration (microdilution); assay type: cell-based; conditions: E. faecalis MSU#10; LB media; median of at least 3 determinations
Protocol: as §1

[8] = tested on: Escherichia coli (strain K91); test: Minimum inhibitory concentration (microdilution); assay type: cell-based; conditions: E. coli K91; LB media; median of at least 3 determinations
Protocol: as §1

[9] = tested on: Pseudomonas aeruginosa (strain PA01); test: Minimum inhibitory concentration (microdilution); assay type: cell-based; conditions: P. aeruginosa PA01; LB media; median of at least 3 determinations
Protocol: as §1

[10] = tested on: Staphylococcus aureus RN4220; test: Minimum inhibitory concentration (microdilution); assay type: cell-based; conditions: S. aureus RN4220; LB media; median of at least 3 determinations
Protocol: as §1

[11] = MDA-MB-231 breast cancer cells (ATCC HTB-26), MDA-231
[12] = Acinetobacter baumannii, ATCC19606, 1 h
[13] = Acinetobacter baumannii, ATCCBAA1605, 1 h

SMILES | Relative to chlorhexidine (factor by which cytotoxicity was reduced) [2] | MIC [5] | MIC [6] | MIC [7] | MIC [8] | MIC [9] | MIC [10] | MIC (MRSA strain LAC, USA300) | CC50 [2] | IC50 (E. coli K91) | IC50 (P. aeruginosa PA01) | IC50 (A. baumannii ATCC 19606) | IC50 [4] | IC50 (E. faecalis MSU#10) | IC50 (E. faecalis V583) | IC50 (S. aureus RN4220) | IC50 (MRSA USA300) | other results
CC1(C)S[C@@H]2[C@H](NC(=O)[C@H](N)c3ccccc3)C(=O)N2[C@H]1C(=O)O [Ampicillin] |  |  |  |  |  |  |  |  |  |  |  |  |  |  |  |  |  | MIC of control antibiotics (MRSA strain LAC, USA300): 32 µg/mL; change in A260 of culture supernatant (cytoplasmic leakage), control antibiotics (MRSA): no increase in A260; also recorded: Significant increases in A260 were not seen
NCCCCNCCCN [Spermidine] | >79 |  |  |  |  |  |  |  |  |  |  |  |  |  |  |  |  | CC50 ([1]; HaCaT keratinocytes): > 150 µg/mL; CC50 [1, 11]: 22 µg/mL (≈ 151 µM); Relative to chlorhexidine (factor by which cytotoxicity was reduced) [3]: 8.5; IC50 (E. coli K91; Escherichia coli, 1 h): > 100 µM; IC50 (P. aeruginosa PA01; Pseudomonas aeruginosa, 1 h): > 100 µM; IC50 (A. baumannii ATCC 19606; [12]): > 100 µM; IC50 [4, 13]: > 100 µM; IC50 (E. faecalis MSU#10; Enterococcus faecalis, 1 h): > 100 µM; IC50 (E. faecalis V583; Enterococcus faecalis, 1 h): > 100 µM; IC50 (S. aureus RN4220; Staphylococcus aureus, 1 h): > 100 µM; IC50 (MRSA USA300; Staphylococcus aureus, 1 h): > 100 µM
NCCCNCCCCNCCCN [Spermine] | >110 |  |  |  |  |  |  |  |  |  |  |  |  |  |  |  |  | CC50 ([1]; HaCaT keratinocytes): > 200 µg/mL; CC50 [1, 11]: 10 µg/mL (≈ 49.4 µM); Relative to chlorhexidine (factor by which cytotoxicity was reduced) [3]: 3.7; IC50 (E. coli K91; Escherichia coli, 1 h): > 100 µM; IC50 (P. aeruginosa PA01; Pseudomonas aeruginosa, 1 h): ≥ 100 µM; IC50 (A. baumannii ATCC 19606; [12]): ≥ 100 µM; IC50 [4, 13]: 79 ± 24 µM; IC50 (E. faecalis MSU#10; Enterococcus faecalis, 1 h): > 100 µM; IC50 (E. faecalis V583; Enterococcus faecalis, 1 h): > 100 µM; IC50 (S. aureus RN4220; Staphylococcus aureus, 1 h): > 100 µM; IC50 (MRSA USA300; Staphylococcus aureus, 1 h): > 100 µM
N=C(N)NCCCCCCCCNc1nc(NCCCCCCCCNC(=N)N)nc(NCCCCCCCCNC(=N)N)n1 [TOAM-3G] | 1.9 | >64 µg/mL | >64 µg/mL | 16 µg/mL (≈ 25.2 µM) | 8 µg/mL (≈ 12.6 µM) | 16 µg/mL (≈ 25.2 µM) | 2 µg/mL (≈ 3.15 µM) | 1 µg/mL (≈ 1.58 µM) | 3.6 µg/mL (≈ 5.68 µM) | 0.68 ± 0.04 µM | 0.85 ± 0.19 µM | 2.6 ± 1.1 µM | 0.92 ± 0.1 µM | 5 ± 1.9 µM | 23 ± 14 µM | 4.7 ± 0.1 µM | 1.5 ± 0.6 µM | 
N=C(NCCCCCCCCNc1nc(NCCCCCCCCNC(=N)Nc2ccccc2)nc(NCCCCCCCCNC(=N)Nc2ccccc2)n1)Nc1ccccc1 [TOAM-3ΦG] | 1.3 | >64 µg/mL | 4 µg/mL (≈ 4.64 µM) | 2 µg/mL (≈ 2.32 µM) | 2 µg/mL (≈ 2.32 µM) | >64 µg/mL | 2 µg/mL (≈ 2.32 µM) | 2 µg/mL (≈ 2.32 µM) | 2.4 µg/mL (≈ 2.78 µM) | 0.33 ± 0.11 µM | 1 ± 0.3 µM | 0.45 ± 0.23 µM | 1.7 µM | 1.2 ± 0.1 µM | 1.7 ± 0.4 µM | 0.54 ± 0.09 µM | 0.24 ± 0.03 µM | 
NCCCCCCCCNc1nc(NCCCCCCCCN)nc(NCCCCCCCCN)n1 [TOAM] | 2.1 | >64 µg/mL | >64 µg/mL | >64 µg/mL | >64 µg/mL | 64 µg/mL (≈ 126 µM) | >64 µg/mL | 48 µg/mL (≈ 94.5 µM) | 4.1 µg/mL (≈ 8.07 µM) | 3.9 ± 0.3 µM | > 100 µM | 3.9 ± 2 µM | 1.3 ± 0.6 µM | 77 ± 30 µM | > 100 µM | > 100 µM | 30 µM | 
CNC(C)C1CCC(N)C(OC2C(N)CC(N)C(OC3OCC(C)(O)C(NC)C3O)C2O)O1 (stereo not shown) [gentamicin] |  |  |  |  |  |  |  |  |  |  |  |  |  |  |  |  |  | MIC of control antibiotics (MRSA strain LAC, USA300): 0.5 µg/mL; change in A260 of culture supernatant (cytoplasmic leakage), control antibiotics (MRSA): no increase in A260; also recorded: Significant increases in A260 were not seen
